How the values were obtained:
Experiment in all cases: relative viability (nuclei count vs DMSO), 5 days (fraction); higher = more cells survive
[1] = compound: CC1=C(CC(=O)O)c2cc(F)ccc2/C1=C\c1ccc([S+](C)[O-])cc1 [Sulindac] + CCNC(=O)c1noc(-c2cc(C(C)C)c(O)cc2O)c1-c1ccc(CN2CCOCC2)cc1 [Luminespib] (partner 0.01 µM)
Procedure, shortened: (§1)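 Five library-drug doses in √10 steps were combined with a fixed anchor-drug dose, or a single drug was given alone, by pin tool to lung cancer cell lines in 1536-well plates the day after seeding. Nuclei were stained and counted after 5 days. Relative viability is the nuclei count in treated wells over that in vehicle wells, taken as the median of duplicate plates.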

[2] = compound: CC1=C(CC(=O)O)c2cc(F)ccc2/C1=C\c1ccc([S+](C)[O-])cc1 [Sulindac] + NC(=O)Nc1cc(-c2cccc(F)c2)sc1C(=O)N[C@H]1CCCNC1 [AZD7762] (partner 0.2 µM)
Procedure, shortened: as §1

[3] = compound: O=c1[nH]cc(F)c(=O)[nH]1 [5-Fluorouracil] + CS(=O)(=O)N1CCN(Cc2cc3nc(-c4cccc5[nH]ncc45)nc(N4CCOCC4)c3s2)CC1 [Pictilisib] (partner 1 µM)
Procedure, shortened: as §1

[4] = compound: CC1=C(CC(=O)O)c2cc(F)ccc2/C1=C\c1ccc([S+](C)[O-])cc1 [Sulindac] + CS(=O)(=O)CCNCc1ccc(-c2ccc3ncnc(Nc4ccc(OCc5cccc(F)c5)c(Cl)c4)c3c2)o1 [Lapatinib] (partner 2 µM)
Procedure, shortened: as §1

PC-3 [JPC-3]
relative viability ([1]; first compound 0.08 µM): 0.663
relative viability ([1]; first compound 0.253 µM): 0.799
relative viability ([1]; first compound 0.8 µM): 0.528
relative viability ([1]; first compound 2.53 µM): 0.656
relative viability ([1]; first compound 8 µM): 0.771
relative viability ([2]; first compound 0.08 µM): 0.855
relative viability ([2]; first compound 0.253 µM): 0.805
relative viability ([2]; first compound 0.8 µM): 0.697
relative viability ([2]; first compound 2.53 µM): 0.715
relative viability ([2]; first compound 8 µM): 1.06
relative viability ([3]; first compound 0.02 µM): 0.77
relative viability ([3]; first compound 0.2 µM): 0.757
relative viability ([3]; first compound 0.6325 µM): 0.796
relative viability ([3]; first compound 2 µM): 0.612
relative viability ([4]; first compound 0.08 µM): 0.476
relative viability ([4]; first compound 0.253 µM): 0.453
relative viability ([4]; first compound 0.8 µM): 0.422
relative viability ([4]; first compound 2.53 µM): 0.457
relative viability ([4]; first compound 8 µM): 0.449

LK-2
relative viability ([1]; first compound 0.08 µM): 0.2
relative viability ([1]; first compound 0.253 µM): 0.18
relative viability ([1]; first compound 8 µM): 0.167
relative viability ([2]; first compound 0.08 µM): 0.456
relative viability ([2]; first compound 0.253 µM): 0.469
relative viability ([2]; first compound 0.8 µM): 0.318
relative viability ([2]; first compound 2.53 µM): 0.465
relative viability ([2]; first compound 8 µM): 0.414
relative viability ([3]; first compound 0.02 µM): 0.635
relative viability ([3]; first compound 0.2 µM): 0.575
relative viability ([3]; first compound 0.6325 µM): 0.374
relative viability ([3]; first compound 2 µM): 0.452
relative viability ([4]; first compound 0.08 µM): 1.05
relative viability ([4]; first compound 0.253 µM): 0.835
relative viability ([4]; first compound 8 µM): 1.15

NCI-H1734
relative viability ([1]; first compound 0.08 µM): 0.146
relative viability ([1]; first compound 0.253 µM): 0.186
relative viability ([1]; first compound 2.53 µM): 0.203
relative viability ([1]; first compound 8 µM): 0.23
relative viability ([2]; first compound 0.08 µM): 0.646
relative viability ([2]; first compound 0.253 µM): 0.587
relative viability ([2]; first compound 0.8 µM): 0.519
relative viability ([2]; first compound 2.53 µM): 0.621
relative viability ([2]; first compound 8 µM): 0.73
relative viability ([3]; first compound 0.02 µM): 0.496
relative viability ([3]; first compound 0.2 µM): 0.49
relative viability ([3]; first compound 0.6325 µM): 0.427
relative viability ([3]; first compound 2 µM): 0.303
relative viability ([4]; first compound 0.08 µM): 1.06
relative viability ([4]; first compound 0.253 µM): 1.08
relative viability ([4]; first compound 0.8 µM): 0.893
relative viability ([4]; first compound 2.53 µM): 0.986
relative viability ([4]; first compound 8 µM): 1.44

NCI-H838
relative viability ([1]; first compound 0.08 µM): 0.231
relative viability ([1]; first compound 0.253 µM): 0.277
relative viability ([1]; first compound 0.8 µM): 0.243
relative viability ([1]; first compound 2.53 µM): 0.211
relative viability ([1]; first compound 8 µM): 0.307
relative viability ([2]; first compound 0.08 µM): 1.05
relative viability ([2]; first compound 0.253 µM): 0.976
relative viability ([2]; first compound 0.8 µM): 0.843
relative viability ([2]; first compound 2.53 µM): 0.886
relative viability ([2]; first compound 8 µM): 1.04
relative viability ([3]; first compound 0.02 µM): 0.414
relative viability ([3]; first compound 0.2 µM): 0.402
relative viability ([3]; first compound 0.6325 µM): 0.306
relative viability ([3]; first compound 2 µM): 0.269
relative viability ([4]; first compound 0.08 µM): 1.21
relative viability ([4]; first compound 0.253 µM): 1.02
relative viability ([4]; first compound 0.8 µM): 0.638
relative viability ([4]; first compound 2.53 µM): 0.972
relative viability ([4]; first compound 8 µM): 1.03

From the supplement of paper PMC10307832
